Test system: 695427-040-R-J1-PDC complex spheroid viability
Test: Anticancer human tumor 695427-040-R-J1-PDC patient-derived colon adenocarcinoma cell line growth inhibition [POLQ]
Conditions: for IC50: curve of first compound; for viability, T/C: stronger effect = lower value
How it was run: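 Patient-derived tumour cells were co-cultured with HUVEC and mesenchymal stem cells as multicellular spheroids at 37 °C. They were treated with POLQ inhibitors (novobiocin, ART-558, RP6685) alone or combined with other agents. Top concentrations were at or near clinical Cmax (otherwise 10 microM; SN-38 at 1 microM), decreasing in half-log steps.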

[1] = second compound 0.0316 µM, first compound 0.0316 µM
[2] = second compound 0.0316 µM, first compound 0.1 µM
[3] = second compound 0.0316 µM, first compound 0.316 µM
[4] = second compound 0.0316 µM, first compound 1 µM
[5] = second compound 0.0316 µM, first compound 3.16 µM
[6] = second compound 0.0316 µM, first compound 10 µM
[7] = second compound 0.1 µM, first compound 0.0316 µM
[8] = second compound 0.1 µM, first compound 0.1 µM
[9] = second compound 0.1 µM, first compound 0.316 µM
[10] = second compound 0.1 µM, first compound 1 µM
[11] = second compound 0.1 µM, first compound 3.16 µM
[12] = second compound 0.1 µM, first compound 10 µM
[13] = second compound 0.316 µM, first compound 0.0316 µM
[14] = second compound 0.316 µM, first compound 0.1 µM
[15] = second compound 0.316 µM, first compound 0.316 µM
[16] = second compound 0.316 µM, first compound 1 µM
[17] = second compound 0.316 µM, first compound 3.16 µM
[18] = second compound 0.316 µM, first compound 10 µM
[19] = second compound 1 µM, first compound 0.0316 µM
[20] = second compound 1 µM, first compound 0.1 µM
[21] = second compound 1 µM, first compound 0.316 µM
[22] = second compound 1 µM, first compound 1 µM
[23] = second compound 1 µM, first compound 3.16 µM
[24] = second compound 1 µM, first compound 10 µM
[25] = second compound 3.16 µM, first compound 0.0316 µM
[26] = second compound 3.16 µM, first compound 0.1 µM
[27] = second compound 3.16 µM, first compound 0.316 µM
[28] = second compound 3.16 µM, first compound 1 µM
[29] = second compound 3.16 µM, first compound 3.16 µM
[30] = second compound 3.16 µM, first compound 10 µM
[31] = second compound 10 µM, first compound 0.0316 µM
[32] = second compound 10 µM, first compound 0.1 µM
[33] = second compound 10 µM, first compound 0.316 µM
[34] = second compound 10 µM, first compound 1 µM
[35] = second compound 10 µM, first compound 3.16 µM
[36] = second compound 10 µM, first compound 10 µM
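Note: spheroids exposed to compounds for seven days.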
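Throughout, for viability, T/C: 100% = DMSO vehicle control viability.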

Q: Which results are given for `CC(C)n1c(=O)n(C)c2cnc3cc(F)c(-c4ccc(OCCCN5CCCCC5)nc4)cc3c21` + COC1C(OC(N)=O)C(O)C(Oc2ccc3c(O)c(NC(=O)c4ccc(O)c(CC=C(C)C)c4)c(=O)oc3c2C)OC1(C)C?
A: IC50 (second compound 0.0316 µM): > 10 µM; IC50 (second compound 0.1 µM): > 10 µM; IC50 (second compound 0.316 µM): > 10 µM; IC50 (second compound 1 µM): > 10 µM; IC50 (second compound 3.16 µM): > 10 µM; IC50 (second compound 10 µM): > 10 µM; viability, T/C [1]: 99.3%; viability, T/C [2]: 98.7%; viability, T/C [3]: 109%; viability, T/C [4]: 113%; viability, T/C [5]: 110%; viability, T/C [6]: 82.6%; viability, T/C [7]: 114%; viability, T/C [8]: 101%; viability, T/C [9]: 112%; viability, T/C [10]: 118%; viability, T/C [11]: 101%; viability, T/C [12]: 80.1%; viability, T/C [13]: 111%; viability, T/C [14]: 103%; viability, T/C [15]: 110%; viability, T/C [16]: 101%; viability, T/C [17]: 114%; viability, T/C [18]: 74.4%; viability, T/C [19]: 110%; viability, T/C [20]: 104%; viability, T/C [21]: 108%; viability, T/C [22]: 112%; viability, T/C [23]: 105%; viability, T/C [24]: 77.2%; viability, T/C [25]: 106%; viability, T/C [26]: 102%; viability, T/C [27]: 103%; viability, T/C [28]: 109%; viability, T/C [29]: 102%; viability, T/C [30]: 79%; viability, T/C [31]: 106%; viability, T/C [32]: 99.5%; viability, T/C [33]: 110%; viability, T/C [34]: 113%; viability, T/C [35]: 114%; viability, T/C [36]: 77.6%

Q: For `COc1cccc(OCCCN)c1-c1cc(Nc2cnc(C#N)cn2)n[nH]1` + Cc1cccc(N(C)C(=O)C2C(O)CCN2c2nc(C)cc(C(F)(F)F)c2C#N)c1, which IC50 (second compound 0.0316 µM) is on record?
A: > 1 µM

Q: What about the IC50 (second compound 0.1 µM) of the same compound?
A: > 1 µM

Q: And the IC50 (second compound 0.316 µM)?
A: > 1 µM

Q: And the IC50 (second compound 1 µM)?
A: > 1 µM

Q: And the IC50 (second compound 3.16 µM)?
A: > 1 µM

Q: And the IC50 (second compound 10 µM)?
A: 0.295 µM

Q: What about the viability, T/C (second compound 0.0316 µM, first compound 0.00316 µM) of the same compound?
A: 95.4%

Q: And the viability, T/C (second compound 0.0316 µM, first compound 0.01 µM)?
A: 107%

Q: And the viability, T/C [1]?
A: 96%

Q: And the viability, T/C [2]?
A: 82.5%

Q: And the viability, T/C [3]?
A: 70.5%

Q: What about the viability, T/C [4] of the same compound?
A: 51%

Q: What about the viability, T/C (second compound 0.1 µM, first compound 0.00316 µM) of the same compound?
A: 109%

Q: What about the viability, T/C (second compound 0.1 µM, first compound 0.01 µM) of the same compound?
A: 95.7%

Q: And the viability, T/C [7]?
A: 88.3%

Q: What about the viability, T/C [8] of the same compound?
A: 80.1%

Q: And the viability, T/C [9]?
A: 71.3%

Q: And the viability, T/C [10]?
A: 48.3%

Q: What about the viability, T/C (second compound 0.316 µM, first compound 0.00316 µM) of the same compound?
A: 105%

Q: And the viability, T/C (second compound 0.316 µM, first compound 0.01 µM)?
A: 97.5%

Q: And the viability, T/C [13]?
A: 87%

Q: And the viability, T/C [14]?
A: 77%

Q: And the viability, T/C [15]?
A: 67.8%

Q: What about the viability, T/C [16] of the same compound?
A: 52.5%

Q: And the viability, T/C (second compound 1 µM, first compound 0.00316 µM)?
A: 105%

Q: And the viability, T/C (second compound 1 µM, first compound 0.01 µM)?
A: 95.3%

Q: What about the viability, T/C [19] of the same compound?
A: 91.6%

Q: What about the viability, T/C [20] of the same compound?
A: 75%

Q: What about the viability, T/C [21] of the same compound?
A: 70.4%

Q: What about the viability, T/C [22] of the same compound?
A: 51.8%

Q: And the viability, T/C (second compound 3.16 µM, first compound 0.00316 µM)?
A: 100%

Q: And the viability, T/C (second compound 3.16 µM, first compound 0.01 µM)?
A: 87.8%

Q: And the viability, T/C [25]?
A: 86.5%

Q: And the viability, T/C [26]?
A: 82%

Q: And the viability, T/C [27]?
A: 69.7%

Q: What about the viability, T/C [28] of the same compound?
A: 55.3%

Q: And the viability, T/C (second compound 10 µM, first compound 0.00316 µM)?
A: 85.9%

Q: And the viability, T/C (second compound 10 µM, first compound 0.01 µM)?
A: 89.1%

Q: And the viability, T/C [31]?
A: 75.8%

Q: What about the viability, T/C [32] of the same compound?
A: 63.7%

Q: And the viability, T/C [33]?
A: 48.8%

Q: What about the viability, T/C [34] of the same compound?
A: 43.5%

Q: Which results are given for `C=CC(=O)N1CCN(c2nc(=O)n(-c3c(C)ccnc3C(C)C)c3nc(-c4c(O)cccc4F)c(F)cc23)C(C)C1` (stereo unspecified) + COC1C(OC(N)=O)C(O)C(Oc2ccc3c(O)c(NC(=O)c4ccc(O)c(CC=C(C)C)c4)c(=O)oc3c2C)OC1(C)C?
A: IC50 (second compound 0.0316 µM): > 10 µM; IC50 (second compound 0.1 µM): > 10 µM; IC50 (second compound 0.316 µM): > 10 µM; IC50 (second compound 1 µM): > 10 µM; IC50 (second compound 3.16 µM): > 10 µM; IC50 (second compound 10 µM): > 10 µM; viability, T/C [1]: 99.8%; viability, T/C [2]: 94.9%; viability, T/C [3]: 97.9%; viability, T/C [4]: 106%; viability, T/C [5]: 113%; viability, T/C [6]: 105%; viability, T/C [7]: 104%; viability, T/C [8]: 102%; viability, T/C [9]: 106%; viability, T/C [10]: 111%; viability, T/C [11]: 118%; viability, T/C [12]: 122%; viability, T/C [13]: 106%; viability, T/C [14]: 101%; viability, T/C [15]: 102%; viability, T/C [16]: 116%; viability, T/C [17]: 112%; viability, T/C [18]: 107%; viability, T/C [19]: 109%; viability, T/C [20]: 102%; viability, T/C [21]: 105%; viability, T/C [22]: 110%; viability, T/C [23]: 119%; viability, T/C [24]: 117%; viability, T/C [25]: 103%; viability, T/C [26]: 109%; viability, T/C [27]: 100%; viability, T/C [28]: 107%; viability, T/C [29]: 125%; viability, T/C [30]: 107%; viability, T/C [31]: 111%; viability, T/C [32]: 92.7%; viability, T/C [33]: 104%; viability, T/C [34]: 109%; viability, T/C [35]: 113%; viability, T/C [36]: 114%

From PubChem BioAssay AID1963840 (Molecular Pharmacology Branch, DTP, NCI, 2024)
